From publication PMC7024208, “In Silico and In Vitro Experimental Studies of New Dibenz[b,e]oxepin-11(6H)one O-(arylcarbamoyl)-oximes Designed as Potential Antimicrobial Agents” (Molecules, 2020)
In brackets after ≈: the same amount, converted by molar mass. Where two headings read alike, the source gives them in different places.

Columns and labels:
B. subtilis ATCC 6633 [1] = test: Qualitative antimicrobial screening, adapted disk diffusion; type: cell-based, Bacillus subtilis; set-up: zone of inhibition: dose or concentration left out as unconfirmed
Procedure: (§1) The antimicrobial activities of the synthesized compounds were determined against ATCC reference and clinical microbial strains, i.e., Bacillus subtilis ATCC 6633, Staphylococcus aureus ATCC 25923, Escherichia coli ATCC 25922, Klebsiella pneumoniae 350, Pseudomonas aeruginosa 1671 and Candida albicans ATCC 10231, using as positive controls the antibiotic ticarcillin and the antifungal agent fluconazole. Microbial suspensions of 1.5 × 10^8 CFU/mL corresponding to 0.5 McFarland density obtained from 15–18 h bacterial cultures developed on solid media were used in our experiments. The antimicrobial activity was tested on Mueller-Hinton Agar (MHA) medium, while a Yeast Peptone Glucose (YPG) medium was used in case of C. albicans. The obtained compounds were solubilized in DMSO and the starting stock solution was of 5000 μg/mL concentration. The qualitative screening was performed by an adapted disk diffusion method as previously reported.

S. aureus ATCC 25923 [2] = test: as above; type: cell-based, Staphylococcus aureus; set-up: zone of inhibition: dose or concentration left out as unconfirmed; conditions: Staphylococcus aureus
Procedure: as §1

P. aeruginosa ATCC 27853 = test: as above; type: cell-based; set-up: zone of inhibition: dose or concentration left out as unconfirmed; conditions: Pseudomonas aeruginosa
E. coli ATCC 25922 [3] = test: as above; type: cell-based, Escherichia coli; set-up: zone of inhibition: dose or concentration left out as unconfirmed; conditions: Escherichia coli
Procedure: as §1

K. pneumoniae 1771 = test: as above; type: cell-based, Klebsiella pneumoniae; set-up: zone of inhibition: dose or concentration left out as unconfirmed
C. albicans ATCC 10231 [4] = test: as above; type: cell-based, Candida albicans; set-up: zone of inhibition: dose or concentration left out as unconfirmed
Procedure: as §1

B. subtilis ATCC 6633 [5] = test: MIC by liquid medium microdilution; type: cell-based, Bacillus subtilis; conditions: B. subtilis ATCC 6633, 24 h at 37 °C
Procedure: as §1
(§2) The quantitative assay of the antimicrobial activity was performed by the liquid medium microdilution method, in 96 multi-well plates, in order to establish the minimal inhibitory concentration (MIC). In this purpose, serial two-fold dilutions of the compounds ranging between 5000 and 4.8 µg/mL were performed in a 200 µL volume of broth and each well was seeded with 50 µL of microbial inoculum. Sterility control (wells containing only culture medium) and culture controls (wells containing culture medium seeded with the microbial inoculum) were used. The influence of the DMSO solvent was also quantified in a series of wells containing DMSO [36], diluted accordingly with the dilution scheme used for the compounds and for the positive controls.

C. albicans ATCC 10231 [6] = test: MIC by liquid medium microdilution; type: cell-based; conditions: Candida albicans, ATCC10231, 24 h
Procedure: as §1, §2

E. coli ATCC 25922 [7] = test: MIC by liquid medium microdilution; type: cell-based; conditions: Escherichia coli
Procedure: as §1, §2

S. aureus ATCC 25923 [8] = test: MIC by liquid medium microdilution; type: cell-based; conditions: Staphylococcus aureus
Procedure: as §1, §2

B. subtilis ATCC 6633 [9] = test: Antibiofilm activity (MBEC), micro-titer method on plastic inert substratum; type: cell-based, Bacillus subtilis; conditions: B. subtilis ATCC 6633 biofilm on plastic substratum
Procedure: (§3) The assessment of the new compounds influence on the microbial ability to colonize the plastic inert substratum was performed by the micro-titer method, following previously described protocols. The absorbance at 490 nm was measured with an LB 911 ELISA reader (Apollo, Berthold Technologies GmbH & Co. KG, Bad Wildbad, Germany). All biological experiments were performed in triplicates.

S. aureus ATCC 25923 [10] = test: as above; type: cell-based, Staphylococcus aureus; conditions: S. aureus ATCC 25923 biofilm on plastic substratum
Procedure: as §3

E. coli ATCC 25922 [11] = test: as above; type: cell-based, Escherichia coli; conditions: E. coli ATCC 25922 biofilm on plastic substratum
Procedure: as §3

C. albicans ATCC 10231 [12] = test: as above; type: cell-based, Candida albicans; conditions: C. albicans ATCC 10231 biofilm on plastic substratum
Procedure: as §3

[13] = Cytotoxicity, CellTiter Assay; type: cell-based; conditions: human, HCT8 cells, 400–10 µg/mL tested
Procedure: (§4) For the in vitro assessment of the cytotoxic effect, the HCT8 cells and the CellTiter Assay kit (Promega, Madison, WI, USA) and Annexin V-FITC Apoptosis Detection Kit I (BD Bioscience Pharmingen, Franklin Lakes, NJ, USA) were used. Briefly, for CellTiter Assay, 1 × 10^4 cells/well were plated in 96 well plate and 24 h after, were treated with the new compound at final concentration between 400 µg/mL–10 µg/mL. The viability was evaluated after 24 h by adding CellTiter aqueous solution and reading to spectrophotometer according to the manufacturer indications. The IC50 were calculated from the percent of viability reported to untreated cells using on line tools https://www.aatbio.com/tools/ic50-calculator. For Annexin V-FITC Apoptosis Detection Kit I, 5 × 10^5 cells were seeded in 3.5 cm diameter Petri dish and treated with 100 µg/mL compounds solution for 24 h. The total cells were resuspended in 100 µL of binding buffer, and stained with 5 µL Annexin V-FITC and 5 µL propidium iodide for 10 min in dark. At least 10,000 events from each sample were acquired using a flow cytometer (Beckman Coulter, Indianapolis, IN, USA). The percentage of cells affected by the treatment was determined by subtracting the percentage of apoptotic/necrotic cells in the untreated population from percentage of apoptotic cells in the treated population.

[14] = Annexin V-FITC/propidium iodide apoptosis analysis by flow cytometry; type: cell-based; conditions: human, HCT8 cells, Annexin V-FITC/PI, read-out: viable cells (Q4)
Procedure: as §4

Cc1cccc(NC(=O)ON=C2c3ccccc3COc3ccccc32)c1 [Compound 7a, 6,11-Dihydrodibenz[b,e]oxepin-11(6H)one O-(3-tolyl-carbamoyl)oxime]
growth inhibition diameter (B. subtilis ATCC 6633 [1]; B. subtilis ATCC 6633, adapted diffusion assay): anti-B. subtilis
zone of inhibition (B. subtilis ATCC 6633 [1]; Bacillus subtilis, ATCC6633, read-out: growth inhibition diameter): 8 mm
zone of inhibition (S. aureus ATCC 25923 [2]; ATCC25923, read-out: growth inhibition diameter): 0 mm
zone of inhibition (P. aeruginosa ATCC 27853; ATCC27853, read-out: growth inhibition diameter): 0 mm
zone of inhibition (E. coli ATCC 25922 [3]; ATCC25922, read-out: growth inhibition diameter): 0 mm
zone of inhibition (K. pneumoniae 1771; Klebsiella pneumoniae, 1771, read-out: growth inhibition diameter): 0 mm
growth inhibition diameter (C. albicans ATCC 10231 [4]; C. albicans ATCC 10231, adapted diffusion assay): anti-C. albicans activity
zone of inhibition (C. albicans ATCC 10231 [4]; Candida albicans, ATCC10231, read-out: growth inhibition diameter): 8 mm
MIC (B. subtilis ATCC 6633 [5]): 4.8 µg/mL (≈ 13.4 µM)
MIC (B. subtilis ATCC 6633 [5]; Bacillus subtilis, ATCC6633, 24 h): 4.8 to 39 µg/mL (≈ 13.4 to 109 µM)
MIC (C. albicans ATCC 10231 [6]): 4.8 µg/mL (≈ 13.4 µM)
MIC (E. coli ATCC 25922 [7]; ATCC25922, 24 h): > 5000 µg/mL
MIC (S. aureus ATCC 25923 [8]; ATCC25923, 24 h): > 5000 µg/mL
MBEC (B. subtilis ATCC 6633 [9]): 156 µg/mL
MBEC (S. aureus ATCC 25923 [10]): 39 µg/mL
MBEC (E. coli ATCC 25922 [11]): 625 µg/mL
MBEC (C. albicans ATCC 10231 [12]): 39 µg/mL
IC50 at 24 h [13]: 264 µg/mL (≈ 737 µM)
viability at 24 h, 100 µg/mL [14]: 84.2%

CC1(C)S[C@@H]2[C@H](NC(=O)[C@H](C(=O)O)c3ccsc3)C(=O)N2[C@H]1C(=O)O [Ticarcillin, ticarcillin, reference compound]
zone of inhibition at 5000 µg/mL (stock) (B. subtilis ATCC 6633 [1]; Bacillus subtilis, ATCC6633, B. subtilis ATCC 6633, adapted diffusion assay, read-out: growth inhibition diameter): 15 mm
zone of inhibition at 5000 µg/mL (stock) (S. aureus ATCC 25923 [2]; ATCC25923, S. aureus ATCC 25923, adapted diffusion assay, read-out: growth inhibition diameter): 21 mm
zone of inhibition at 5000 µg/mL (stock) (P. aeruginosa ATCC 27853; ATCC27853, P. aeruginosa ATCC 27853, adapted diffusion assay, read-out: growth inhibition diameter): 17 mm
zone of inhibition at 5000 µg/mL (stock) (E. coli ATCC 25922 [3]; ATCC25922, E. coli ATCC 25922, adapted diffusion assay, read-out: growth inhibition diameter): 24 mm
zone of inhibition at 5000 µg/mL (stock) (K. pneumoniae 1771; Klebsiella pneumoniae, K. pneumoniae 1771, adapted diffusion assay, read-out: growth inhibition diameter): 0 mm
MIC (B. subtilis ATCC 6633 [5]; Bacillus subtilis, ATCC6633, 24 h, read-out: MIC): 78 µg/mL (≈ 203 µM)
MIC (E. coli ATCC 25922 [7]; ATCC25922, E. coli ATCC 25922, 24 h at 37 °C, read-out: MIC): 19.5 µg/mL (≈ 50.7 µM)
MIC (S. aureus ATCC 25923 [8]; ATCC25923, S. aureus ATCC 25923, 24 h at 37 °C, read-out: MIC): 9.76 µg/mL (≈ 25.4 µM)
MBEC (B. subtilis ATCC 6633 [9]): 156 µg/mL
MBEC (S. aureus ATCC 25923 [10]): 156 µg/mL
MBEC (E. coli ATCC 25922 [11]): 625 µg/mL
